# Experimental data as given in PubChem BioAssay (NCI).
#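 Compound exposure: 48 hours, 5 concentrations, 96-well plates. The concentration for 50% growth inhibition is given as GI50. At the TGI there is no net growth.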
# Key:
# Test in all cases: inhibition of tumour cell growth, NCI panel, 48 h
# UO-31 renal = test system: UO-31 renal
# M14 melanoma = test system: M14 melanoma
# UACC-257 melanoma = test system: UACC-257 melanoma
# UACC-62 melanoma = test system: UACC-62 melanoma
# OVCAR-4 ovarian = test system: OVCAR-4 ovarian
# SK-MEL-2 melanoma = test system: SK-MEL-2 melanoma
# TK-10 renal = test system: TK-10 renal
# NCI-H226 lung = test system: NCI-H226 lung
# SNB-75 CNS = test system: SNB-75 CNS
# COLO 205 colon = test system: COLO 205 colon
# SF-295 CNS = test system: SF-295 CNS
# HOP-92 NSCLC = test system: HOP-92 NSCLC
# DU-145 prostate = test system: DU-145 prostate
# SW-620 colon = test system: SW-620 colon
# HOP-62 NSCLC = test system: HOP-62 NSCLC
# HCC-2998 colon = test system: HCC-2998 colon
# MCF7 breast = test system: MCF7 breast
# MDA-MB-435 = test system: MDA-MB-435
# OVCAR-8 ovarian = test system: OVCAR-8 ovarian
# SK-MEL-28 melanoma = test system: SK-MEL-28 melanoma
# SN12C renal = test system: SN12C renal
# 786-0 renal = test system: 786-0 renal
# T-47D breast = test system: T-47D breast
# ACHN renal = test system: ACHN renal
# HCT-116 colon = test system: HCT-116 colon
# OVCAR-5 ovarian = test system: OVCAR-5 ovarian
# A498 renal = test system: A498 renal
# HS 578T breast = test system: HS 578T breast
# NCI/ADR-RES ovarian = test system: NCI/ADR-RES ovarian
# KM12 colon = test system: KM12 colon
# EKVX NSCLC = test system: EKVX NSCLC
# A549 NSCLC = test system: A549 NSCLC
# MDA-MB-231 breast = test system: MDA-MB-231 breast
# SF-539 CNS = test system: SF-539 CNS
# IGROV1 ovarian = test system: IGROV1 ovarian
# HCT-15 colon = test system: HCT-15 colon
# NCI-H522 lung = test system: NCI-H522 lung
# HL-60(TB) leukemia = test system: HL-60(TB) leukemia
# CAKI-1 renal = test system: CAKI-1 renal
# HT29 colon = test system: HT29 colon
# U251 CNS = test system: U251 CNS
# BT-549 breast = test system: BT-549 breast
# NCI-H460 lung = test system: NCI-H460 lung
# SK-OV-3 ovarian = test system: SK-OV-3 ovarian
# SK-MEL-5 melanoma = test system: SK-MEL-5 melanoma
# SNB-19 CNS = test system: SNB-19 CNS
# LOX IMVI melanoma = test system: LOX IMVI melanoma
compound,measurement,setting,value
Nc1nc(N)c2c(n1)NC(c1ccccc1)CC(c1ccc(Nc3nc(NCCO)nc(Nc4ccc(Cl)cc4)n3)cc1)=N2 (centres undefined),GI50,UO-31 renal,1.87 µM
same,TGI,UO-31 renal,4.29 µM
same,GI50,M14 melanoma,1.84 µM
same,TGI,M14 melanoma,3.35 µM
same,GI50,UACC-257 melanoma,1.9 µM
same,TGI,UACC-257 melanoma,3.49 µM
same,GI50,UACC-62 melanoma,1.84 µM
same,TGI,UACC-62 melanoma,3.32 µM
same,GI50,OVCAR-4 ovarian,1.72 µM
same,TGI,OVCAR-4 ovarian,3.76 µM
same,GI50,SK-MEL-2 melanoma,1.38 µM
same,TGI,SK-MEL-2 melanoma,2.78 µM
same,GI50,TK-10 renal,2.09 µM
same,TGI,TK-10 renal,3.87 µM
same,GI50,NCI-H226 lung,11.5 µM
same,TGI,NCI-H226 lung,31.3 µM
same,GI50,SNB-75 CNS,1.56 µM
same,TGI,SNB-75 CNS,3.13 µM
same,GI50,COLO 205 colon,1.79 µM
same,TGI,COLO 205 colon,3.31 µM
same,GI50,SF-295 CNS,1.57 µM
same,TGI,SF-295 CNS,2.97 µM
same,GI50,HOP-92 NSCLC,1.42 µM
same,TGI,HOP-92 NSCLC,3.09 µM
same,GI50,DU-145 prostate,1.8 µM
same,TGI,DU-145 prostate,3.38 µM
same,GI50,SW-620 colon,1.87 µM
same,TGI,SW-620 colon,3.48 µM
same,GI50,HOP-62 NSCLC,1.74 µM
same,TGI,HOP-62 NSCLC,3.24 µM
same,GI50,HCC-2998 colon,1.68 µM
same,TGI,HCC-2998 colon,3.1 µM
same,GI50,MCF7 breast,1.51 µM
same,TGI,MCF7 breast,3.04 µM
same,GI50,MDA-MB-435,1.74 µM
same,TGI,MDA-MB-435,3.17 µM
same,GI50,OVCAR-8 ovarian,1.46 µM
same,TGI,OVCAR-8 ovarian,3.1 µM
same,GI50,SK-MEL-28 melanoma,1.73 µM
same,TGI,SK-MEL-28 melanoma,3.12 µM
same,GI50,SN12C renal,1.74 µM
same,TGI,SN12C renal,3.54 µM
same,GI50,786-0 renal,1.63 µM
same,TGI,786-0 renal,3.08 µM
same,GI50,T-47D breast,1.52 µM
same,TGI,T-47D breast,3.32 µM
same,GI50,ACHN renal,1.95 µM
same,TGI,ACHN renal,4.36 µM
same,GI50,HCT-116 colon,1.51 µM
same,TGI,HCT-116 colon,2.84 µM
same,GI50,OVCAR-5 ovarian,1.94 µM
same,TGI,OVCAR-5 ovarian,3.75 µM
same,GI50,A498 renal,1.54 µM
same,TGI,A498 renal,3.03 µM
same,GI50,HS 578T breast,1.98 µM
same,TGI,HS 578T breast,5.15 µM
same,GI50,NCI/ADR-RES ovarian,4.33 µM
same,TGI,NCI/ADR-RES ovarian,> 100 µM
same,GI50,KM12 colon,1.9 µM
same,TGI,KM12 colon,3.54 µM
same,GI50,EKVX NSCLC,1.64 µM
same,TGI,EKVX NSCLC,3.17 µM
same,GI50,A549 NSCLC,2.84 µM
same,TGI,A549 NSCLC,9.18 µM
same,GI50,MDA-MB-231 breast,1.75 µM
same,TGI,MDA-MB-231 breast,3.48 µM
same,GI50,SF-539 CNS,1.6 µM
same,TGI,SF-539 CNS,3.06 µM
same,GI50,IGROV1 ovarian,1.56 µM
same,TGI,IGROV1 ovarian,3.13 µM
same,GI50,HCT-15 colon,1.38 µM
same,TGI,HCT-15 colon,2.84 µM
same,GI50,NCI-H522 lung,1.79 µM
same,TGI,NCI-H522 lung,3.48 µM
same,GI50,HL-60(TB) leukemia,0.319 µM
same,TGI,HL-60(TB) leukemia,1.48 µM
same,GI50,CAKI-1 renal,2.3 µM
same,TGI,CAKI-1 renal,5.79 µM
same,GI50,HT29 colon,1.77 µM
same,TGI,HT29 colon,3.33 µM
same,GI50,U251 CNS,1.53 µM
same,TGI,U251 CNS,2.99 µM
same,GI50,BT-549 breast,1.77 µM
same,TGI,BT-549 breast,3.2 µM
same,GI50,NCI-H460 lung,1.85 µM
same,TGI,NCI-H460 lung,3.47 µM
same,GI50,SK-OV-3 ovarian,17.7 µM
same,TGI,SK-OV-3 ovarian,32 µM
same,GI50,SK-MEL-5 melanoma,1.42 µM
same,TGI,SK-MEL-5 melanoma,2.72 µM
same,GI50,SNB-19 CNS,1.58 µM
same,TGI,SNB-19 CNS,2.99 µM
same,GI50,LOX IMVI melanoma,1.54 µM
same,TGI,LOX IMVI melanoma,2.95 µM
